Measured values: PMC5161585 (Nature, 2016)
Entries after “also recorded” stand apart in the source; their conditions may differ.

How the values were obtained:
κOR [1] = molecular target: T1, κOR (Homo sapiens, UniProt P41145); assay: Radioligand binding at κOR; conditions: read-out: κOR Ki
δOR [2] = molecular target: T2, δOR (Homo sapiens, UniProt P41143); assay: Radioligand binding at δOR; conditions: read-out: δOR Ki
δOR [3] = molecular target: T2, δOR; assay: Gi/o Glosensor assay at δOR; type: cell-based
κOR [4] = molecular target: T1, κOR; assay: Gi/o Glosensor assay at κOR; type: cell-based
nociceptin receptor = nociceptin receptor (Homo sapiens, UniProt P41146); assay: Gi/o Glosensor assay at nociceptin receptor; type: cell-based
320 non-olfactory GPCRs = assay: PRESTO-Tango GPCRome β-arrestin recruitment screen; type: cell-based; conditions: 10 μM screen, hits re-tested in full dose–response
SSTR4 = SSTR4 (Homo sapiens, UniProt P31391); assay: Gi/o Glosensor assay measuring SSTR4 activation; type: cell-based
C57BL/6J mice [5] = assay: Hotplate assay subcategorized into affective and reflexive responses; type: in vivo, mouse; conditions: for analgesia on affective versus reflexive component of pain: morphine 10 mg/kg, PZM21 20 mg/kg
mice [6] = assay: Formalin injection nociception assay; type: in vivo, mouse; conditions: morphine 10 mg/kg, PZM21 40 mg/kg
Oprm1−/− mice = assay: Hotplate assay in μOR knockout mice; type: in vivo, mouse; conditions: morphine 10 mg/kg, PZM21 20 mg/kg, 30 min
mice [7] = assay: Accumulated faecal boli quantification; type: in vivo, mouse; conditions: morphine 10 mg/kg, PZM21 20 mg/kg
mice [8] = assay: Whole-body mouse plethysmography; type: in vivo; conditions: equi-analgesic doses: PZM21 40 mg/kg, TRV130 1.2 mg/kg, morphine 10 mg/kg
mice [9] = assay: Open field locomotor response; type: in vivo, mouse; conditions: morphine 10 mg/kg, PZM21 20 mg/kg
mice [10] = assay: Conditioned place preference; type: in vivo, mouse; conditions: morphine 10 mg/kg, PZM21 20 mg/kg, TRV130 1.2 mg/kg
mice [11] = assay: Catalepsy bar test; type: in vivo, mouse; conditions: PZM21 20 mg/kg, morphine 10 mg/kg
[12] = Pharmacokinetics of PZM21, serum and brain levels; type: in vivo, mouse; conditions: 20 mg/kg subcutaneous, mice
[13] = Metabolism in mouse liver microsomes; type: in vitro ADME; conditions: over one hour, 80 μM
C57BL/6J mice [14] = assay: Mouse tail-flick assay; conditions: in vivo
C57BL/6J mice [15] = assay: Mouse hotplate analgesia assay; conditions: 15 min after the highest dose tested (40 mg/kg), subcutaneous
human μOR [16] = molecular target: T3, human μOR (Homo sapiens, UniProt P35372); assay: Receptor internalization, PathHunter GPCR internalization assay in U2OS cells; type: cell-based
human μOR [17] = molecular target: T3, human μOR; assay: BRET-based; type: cell-based; conditions: read-out: EC50 in CAMYEL-based Gi/o signalling assay
human μOR [18] = molecular target: T3, human μOR; assay: β-arrestin-2 recruitment by BRET in HEK-293T cells; type: cell-based

T1 sequence (P41145 whole entry): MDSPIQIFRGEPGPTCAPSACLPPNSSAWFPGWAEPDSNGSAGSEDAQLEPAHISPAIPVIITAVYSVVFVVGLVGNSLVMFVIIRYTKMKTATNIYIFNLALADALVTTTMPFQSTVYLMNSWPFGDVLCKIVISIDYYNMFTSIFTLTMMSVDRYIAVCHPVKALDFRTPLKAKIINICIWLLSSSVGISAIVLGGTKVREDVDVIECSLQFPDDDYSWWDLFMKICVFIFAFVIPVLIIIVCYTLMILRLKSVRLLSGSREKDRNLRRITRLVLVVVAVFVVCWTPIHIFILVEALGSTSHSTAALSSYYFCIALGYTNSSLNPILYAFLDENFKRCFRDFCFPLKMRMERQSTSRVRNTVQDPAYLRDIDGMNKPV
T3 sequence (P35372 whole entry): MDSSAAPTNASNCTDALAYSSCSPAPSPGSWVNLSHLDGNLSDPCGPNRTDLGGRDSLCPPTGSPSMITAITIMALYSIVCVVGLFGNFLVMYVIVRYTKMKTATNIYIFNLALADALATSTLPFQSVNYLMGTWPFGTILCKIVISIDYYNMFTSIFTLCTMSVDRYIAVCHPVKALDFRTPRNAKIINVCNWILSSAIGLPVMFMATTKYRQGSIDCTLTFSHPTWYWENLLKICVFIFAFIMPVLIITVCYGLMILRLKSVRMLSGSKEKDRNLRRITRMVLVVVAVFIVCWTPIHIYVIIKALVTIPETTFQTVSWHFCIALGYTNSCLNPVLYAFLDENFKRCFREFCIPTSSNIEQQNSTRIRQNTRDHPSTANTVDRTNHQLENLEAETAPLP
T2 sequence (P41143 whole entry): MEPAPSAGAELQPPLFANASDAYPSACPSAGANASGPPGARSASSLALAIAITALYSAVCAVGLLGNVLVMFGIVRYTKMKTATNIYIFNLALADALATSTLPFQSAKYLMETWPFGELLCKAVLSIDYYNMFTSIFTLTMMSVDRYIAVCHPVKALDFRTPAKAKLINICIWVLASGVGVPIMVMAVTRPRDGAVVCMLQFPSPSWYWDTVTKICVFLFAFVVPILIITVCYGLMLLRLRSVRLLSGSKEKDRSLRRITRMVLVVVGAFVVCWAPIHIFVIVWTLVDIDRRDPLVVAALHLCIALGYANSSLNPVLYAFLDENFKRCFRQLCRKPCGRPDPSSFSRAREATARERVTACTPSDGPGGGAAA
SSTR4, sequence (P31391 whole entry, species assumed): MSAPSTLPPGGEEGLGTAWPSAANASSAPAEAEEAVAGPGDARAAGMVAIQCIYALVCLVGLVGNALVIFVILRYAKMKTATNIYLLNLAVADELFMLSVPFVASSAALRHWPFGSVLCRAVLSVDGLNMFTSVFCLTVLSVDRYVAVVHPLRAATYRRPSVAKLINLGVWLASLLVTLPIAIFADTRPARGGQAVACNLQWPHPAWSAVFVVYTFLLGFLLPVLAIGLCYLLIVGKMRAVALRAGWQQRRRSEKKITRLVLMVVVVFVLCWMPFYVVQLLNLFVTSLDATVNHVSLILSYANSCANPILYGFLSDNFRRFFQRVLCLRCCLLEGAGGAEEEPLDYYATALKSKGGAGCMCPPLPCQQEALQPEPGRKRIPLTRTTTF
nociceptin receptor, sequence (P41146 whole entry, species assumed): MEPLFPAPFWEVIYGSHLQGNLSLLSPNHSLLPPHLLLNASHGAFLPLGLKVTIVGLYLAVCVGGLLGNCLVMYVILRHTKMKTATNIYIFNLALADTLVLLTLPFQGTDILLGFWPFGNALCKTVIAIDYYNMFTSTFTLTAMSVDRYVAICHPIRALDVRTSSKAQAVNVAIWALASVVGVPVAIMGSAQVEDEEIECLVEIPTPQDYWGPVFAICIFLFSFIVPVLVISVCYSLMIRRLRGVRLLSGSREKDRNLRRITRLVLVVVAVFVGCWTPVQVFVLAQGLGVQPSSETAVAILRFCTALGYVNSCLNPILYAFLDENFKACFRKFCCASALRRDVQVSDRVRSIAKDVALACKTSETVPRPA

C[C@@H](Cc1ccsc1)NC(=O)NC[C@H](Cc1ccc(O)cc1)N(C)C [PZM21]
Ki (κOR [1]): 18 nM | Ki (δOR [2]): 506 nM | δOR Gi/o (Glosensor) Emax (δOR [3]): 78% | EC50 (δOR [3]; read-out: δOR Gi/o (Glosensor) EC50): 1900 nM | κOR agonist activity (in words) (κOR [4]): no detectable κOR or nociceptin receptor agonist activity | nociceptin receptor agonist activity (in words) (nociceptin receptor): no detectable κOR or nociceptin receptor agonist activity | agonism at other GPCRs (320 non-olfactory GPCRs): no potent activity was confirmed with a full dose–response experiment | SSTR4 activation, cAMP inhibition (SSTR4): does not show a dose-dependent change in cAMP inhibition | duration of analgesia (C57BL/6J mice [5]; hotplate): up to 180 min | analgesia on affective versus reflexive component of pain (C57BL/6J mice [5]): solely confers analgesia to the affective component of pain; also recorded: only modulates the attending (affective) component | analgesia in formalin injection nociception assay (mice [6]): active in a formalin injection nociception assay | analgesic response in hotplate assay in μOR knockout mice (Oprm1−/− mice): completely ablates the observed analgesic response | constipating effect (accumulated faecal boli) (mice [7]): constipating effect is substantially less than morphine | effect on respiration frequency (mice [8]): almost undistinguishable from vehicle | effect on locomotion in open-field assay (mice [9]): no apparent effect on locomotion versus vehicle | conditioned place preference (mice [10]): does not induce a conditioned place preference response | cataleptic effect (mice [11]): minimal cataleptic effect compared to morphine | peak level in brain tissue [12]: 197 ng per g | concomitant serum concentration ([12]; at brain peak): 1,253 ng/ml | metabolism by mouse liver microsomes [13]: 8% | analgesic effect in tail-flick assay (C57BL/6J mice [14]): no analgesic effect | per cent maximal possible effect (% MPE), hotplate (C57BL/6J mice [15]): 87%

CN1CC[C@]23c4c5ccc(O)c4O[C@H]2[C@@H](O)C=C[C@H]3[C@H]1C5 [morphine, reference compound]
analgesia on affective versus reflexive component of pain (C57BL/6J mice [5]): induces changes in both behaviours | analgesia in formalin injection nociception assay (mice [6]): sustained analgesia | conditioned place preference (mice [10]): Place preference is induced

COc1ccsc1CNCC[C@@]1(c2ccccn2)CCOC2(CCCC2)C1 [TRV130]
κOR agonist activity (in words) (κOR [4]): potent agonists of the κOR | μOR internalization (human μOR [16]): much decreased receptor internalization versus DAMGO and even morphine | effect on respiration frequency (mice [8]): significantly depresses respiration at 15 min | conditioned place preference (mice [10]): not significant relative to vehicle

CN(C)[C@H](CNC(=O)NCCc1ccccc1)Cc1ccc(O)cc1 [PZM22]
EC50 (human μOR [17]): 1.8 nM

COC(=O)[C@@H]1C[C@H](OC(=O)c2ccccc2)C(=O)[C@H]2[C@@]1(C)CC[C@H]1C(=O)O[C@H](c3ccoc3)C[C@]21C [Herkinorin, herkinorin]
κOR agonist activity (in words) (κOR [4]): potent agonists of the κOR | arrestin recruitment in BRET assay in the absence of GRK2 overexpression (human μOR [18]): robustly recruits arrestin
